Data as given in paper PMC9403976, “Elucidating the path to Plasmodium prolyl-tRNA synthetase inhibitors that overcome halofuginone resistance” (Nature Communications, 2022).
Values joined by “and” are separate entries in the source; they are usually repeats but may differ in a detail not shown here. Equal values may be shown once. Read-outs that look alike come from different tables or passages of the source.

Legend:
[1] = test system: HFGR-I P. falciparum (elevated proline homeostasis and PfcProRS^L482H); assay: P. falciparum ABS growth assay, SYBR Green, 72 h, HFGR-I parasites; assay type: cell-based, Plasmodium falciparum; settings: HFGR-I, listed as Halofuginone (1)
In short: (§1)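 Dd2-derived erythrocytic-stage parasites at 1% parasitemia and 1% hematocrit in RPMI + 0.5% Albumax were exposed to compounds in triplicate dose-response. Controls were 10 μM dihydroartemisinin (kill) and no-compound wells (growth). Growth was read by SYBR Green 1 fluorescence after 72 h and used to derive EC50.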

[2] = test system: P. falciparum Dd2-2D4 NCP26 selections S1-3; assay: ABS growth assay on bulk populations and clones from NCP26 resistance selections S1-3; assay type: cell-based, Plasmodium falciparum; settings: for EC50: Plasmodium falciparum; for Fold-change Resistance: independent experiments
Experimental: In short, P. falciparum erythrocytic-stage parasites at 1% parasitemia and 1% hematocrit in RPMI + 0.5% Albumax were seeded at 40 μL/well in 384-well plates with test compounds in triplicate, dose-response format with 10 μM dihydroartemisinin as a kill-control and blank (no compound) wells as a growth-control. […] After 72 h, growth was quantified by measuring fluorescence (Molecular Devices SpectraMax iD5) following SYBR Green 1 staining. Data were analyzed in Excel and plotted in PRISM (V. 8.4.3–9.1.0, GraphPad).
This cycle was repeated for ~50 generations (~100 days), corresponding to 5–6 cycles of drug pressure.
Clonal parasites were isolated from each selection flask by limiting dilution of ring stage parasites in 96-well plates to an average of 0.8 and 0.2 parasites per well.

PfcProRS = target: T1, PfcProRS (Plasmodium falciparum, UniProt Q8I5R7); assay type: binding; settings: for dose-response signal (normalized), SI Fig 8: single replicates, listed as Halofuginone (1)
T1 construct: made in house; host or cells: E. coli SoluBL-21

P. falciparum Dd2-2D4 = assay: P. falciparum asexual blood stage (ABS) growth assay, SYBR Green, 72 h, wild-type parasites; assay type: cell-based, Plasmodium falciparum; settings: for parasite growth, replicate wells (Fig 1b): Dd2-2D4
Experimental: Parasites were maintained under standard culture conditions as described previously[56],[57]. […] The P. falciparum Dd2 cell lines used in this study (Dd2-2D4, halofuginone-induced, and HFGR-I) have previously undergone whole genome sequencing in our labs.
This assay was performed as previously described[8]. In short, P. falciparum erythrocytic-stage parasites at 1% parasitemia and 1% hematocrit in RPMI + 0.5% Albumax were seeded at 40 μL/well in 384-well plates with test compounds in triplicate, dose-response format with 10 μM dihydroartemisinin as a kill-control and blank (no compound) wells as a growth-control. […] After 72 h, growth was quantified by measuring fluorescence (Molecular Devices SpectraMax iD5) following SYBR Green 1 staining. Data were analyzed in Excel and plotted in PRISM (V. 8.4.3–9.1.0, GraphPad).

[3] = test system: halofuginone-induced P. falciparum (elevated proline homeostasis); assay: P. falciparum ABS growth assay, SYBR Green, 72 h, halofuginone-induced parasites; assay type: cell-based, Plasmodium falciparum; settings: Halofuginone-Induced
In short: as §1

[4] = Log[inhibitor] (M) -7.602, listed as Halofuginone (1)
[5] = Log[inhibitor] (M) -7.903, listed as Halofuginone (1)
[6] = Log[inhibitor] (M) -8.204, listed as Halofuginone (1)

T1 sequence (Q8I5R7 249-746): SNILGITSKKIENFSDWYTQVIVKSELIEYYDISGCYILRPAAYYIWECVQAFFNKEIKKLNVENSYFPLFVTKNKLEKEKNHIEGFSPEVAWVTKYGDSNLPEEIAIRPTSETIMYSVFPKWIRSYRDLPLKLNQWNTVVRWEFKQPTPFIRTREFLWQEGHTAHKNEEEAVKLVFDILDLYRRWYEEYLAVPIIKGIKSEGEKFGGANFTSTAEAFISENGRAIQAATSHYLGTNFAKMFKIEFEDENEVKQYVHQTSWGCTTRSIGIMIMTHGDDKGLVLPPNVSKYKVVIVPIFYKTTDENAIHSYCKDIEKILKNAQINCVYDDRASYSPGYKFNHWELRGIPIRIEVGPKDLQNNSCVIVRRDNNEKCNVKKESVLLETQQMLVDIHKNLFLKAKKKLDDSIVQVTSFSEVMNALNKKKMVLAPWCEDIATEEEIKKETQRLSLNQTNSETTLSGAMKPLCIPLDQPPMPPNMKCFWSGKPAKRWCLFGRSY

Structure (SMILES): O=C(CC1NCCCC1O)Cn1cnc2cc(Br)c(Cl)cc2c1=O (stereo not shown) [Halofuginone]
- parasite growth, replicate wells (Fig 1b) ([1]; Log[inhibitor] (M) -5.204): 3.00E+00 and 2.00E+00 and 4.00E+00
- parasite growth, replicate wells (Fig 1b) ([1]; Log[inhibitor] (M) -5.505): 4.00E+00 (2×) and 3.00E+00
- parasite growth, replicate wells (Fig 1b) ([1]; Log[inhibitor] (M) -5.806): 3.00E+00 (2×) and 4.00E+00
- parasite growth, replicate wells (Fig 1b) ([1]; Log[inhibitor] (M) -6.107): 6.00E+00 (2×) and 5.00E+00
- parasite growth, replicate wells (Fig 1b) ([1]; Log[inhibitor] (M) -6.408): 1.70E+01 (2×) and 1.60E+01
- parasite growth, replicate wells (Fig 1b) ([1]; Log[inhibitor] (M) -6.709): 5.40E+01 and 5.50E+01 (2×)
- parasite growth, replicate wells (Fig 1b) ([1]; Log[inhibitor] (M) -7.000): 7.70E+01 and 8.00E+01 and 8.50E+01
- parasite growth, replicate wells (Fig 1b) ([1]; Log[inhibitor] (M) -7.010): 8.50E+01 and 8.60E+01 and 8.30E+01
- parasite growth, replicate wells (Fig 1b) ([1]; Log[inhibitor] (M) -7.301): 9.80E+01 and 1.03E+02 and 9.90E+01
- parasite growth, replicate wells (Fig 1b) ([1]; Log[inhibitor] (M) -7.311): 9.50E+01 and 9.00E+01 and 9.10E+01
- parasite growth, replicate wells (Fig 1b) ([1]; Log[inhibitor] (M) -7.602): 1.01E+02 and 1.03E+02 and 1.05E+02
- parasite growth, replicate wells (Fig 1b) ([1]; Log[inhibitor] (M) -7.903): 1.04E+02 and 1.03E+02 and 1.06E+02
- parasite growth, replicate wells (Fig 1b) ([1]; Log[inhibitor] (M) -8.204): 1.05E+02 and 1.07E+02 and 1.03E+02
- parasite growth, replicate wells (Fig 1b) ([1]; Log[inhibitor] (M) -8.505): 1.06E+02 and 1.04E+02 and 1.02E+02
- EC50 ([2]; DD2, cell line S1 - Clone A8, read-out: EC50 [nM] mean): 0.641 nM
- EC50 ([2]; DD2, cell line S1 - bulk population, read-out: EC50 [nM] mean): 0.951 nM
- EC50 ([2]; DD2, cell line S2 - Clone A3, read-out: EC50 [nM] mean): 0.36 nM
- EC50 ([2]; DD2, cell line S2 - Clone B9, read-out: EC50 [nM] mean): 0.694 nM
- EC50 ([2]; DD2, cell line S2 - Clone C5, read-out: EC50 [nM] mean): 0.439 nM
- EC50 ([2]; DD2, cell line S2 - bulk population, read-out: EC50 [nM] mean): 0.432 nM
- EC50 ([2]; DD2, cell line S3 - Clone B3, read-out: EC50 [nM] mean): 2.51 nM
- EC50 ([2]; DD2, cell line S3 - Clone B7, read-out: EC50 [nM] mean): 2.01 nM
- EC50 ([2]; DD2, cell line S3 - bulk population, read-out: EC50 [nM] mean): 2.56 nM
- EC50 ([2]; DD2, read-out: EC50 [nM] mean, cell line S3 - Clone B2): 2.75 nM
- Fold-change Resistance ([2]; S1 - Clone A8): 0.97 and 0.75 and 1.48
- Fold-change Resistance ([2]; S2 - Clone B9): 0.89 and 1.08
- Fold-change Resistance ([2]; S2 - Clone C5): 0.56 and 0.68
- Fold-change Resistance ([2]; S3 - Clone B2): 3.65 and 3.48
- Fold-change Resistance ([2]; S3 - Clone B3): 3.93 and 2.72 and 3.23
- Fold-change Resistance ([2]; S3 - Clone B7): 2.66 and 3.07 and 3.15
- binding mode with respect to substrates (ATP, proline) (PfcProRS): ATP-uncompetitive binding
- fold increased affinity in the presence of ATP (PfcProRS; 500 μM ATP vs 0 μM ATP): > 6000 fold
- dose-response signal (normalized), SI Fig 8 (PfcProRS; Log[inhibitor] (M) -5.000): 7.25E-01 and 6.60E-01 and 7.89E-01
- dose-response signal (normalized), SI Fig 8 (PfcProRS; Log[inhibitor] (M) -5.258): 8.77E-01 and 7.58E-01 and 8.28E-01
- dose-response signal (normalized), SI Fig 8 (PfcProRS; Log[inhibitor] (M) -5.517): 8.36E-01 and 8.59E-01 and 9.08E-01
- dose-response signal (normalized), SI Fig 8 (PfcProRS; Log[inhibitor] (M) -5.775): 9.71E-01 and 9.45E-01 and 1.00E+00
- dose-response signal (normalized), SI Fig 8 (PfcProRS; Log[inhibitor] (M) -6.018): 9.98E-01 and 1.00E+00 and 1.01E+00
- dose-response signal (normalized), SI Fig 8 (PfcProRS; Log[inhibitor] (M) -6.281): 9.70E-01 and 1.00E+00 and 9.36E-01
- dose-response signal (normalized), SI Fig 8 (PfcProRS; Log[inhibitor] (M) -6.535): 9.87E-01 and 8.91E-01 and 9.43E-01
- dose-response signal (normalized), SI Fig 8 (PfcProRS; Log[inhibitor] (M) -6.796): 1.03E+00 (2×) and 1.00E+00
- dose-response signal (normalized), SI Fig 8 (PfcProRS; Log[inhibitor] (M) -7.056): 9.55E-01 and 1.03E+00 (2×)
- dose-response signal (normalized), SI Fig 8 (PfcProRS; Log[inhibitor] (M) -7.319): 1.02E+00 (2×) and 9.30E-01
- dose-response signal (normalized), SI Fig 8 (PfcProRS; Log[inhibitor] (M) -7.553): 9.85E-01 and 1.03E+00 and 9.40E-01
- dose-response signal (normalized), SI Fig 8 (PfcProRS; Log[inhibitor] (M) -7.796): 9.66E-01 and 1.04E+00 and 1.00E+00
- dose-response signal (normalized), SI Fig 8 (PfcProRS; Log[inhibitor] (M) -8.097): 1.01E+00 and 9.81E-01 and 1.00E+00
- dose-response signal (normalized), SI Fig 8 (PfcProRS; Log[inhibitor] (M) -8.398): 9.48E-01 and 1.10E+00 and 1.01E+00
- dose-response signal (normalized), SI Fig 8 (PfcProRS; Log[inhibitor] (M) -8.585): 1.08E+00 and 9.61E-01 and 9.66E-01
- PfcProRS -- best Kd (PfcProRS; SI Fig 16a, values on -log scale): 9.298
- parasite growth, replicate wells (Fig 1b) (P. falciparum Dd2-2D4; Log[inhibitor] (M) -7.000): 1.00E+00
- parasite growth, replicate wells (Fig 1b) (P. falciparum Dd2-2D4; Log[inhibitor] (M) -7.301): 1.00E+00
- parasite growth, replicate wells (Fig 1b) (P. falciparum Dd2-2D4; [4]): 0.00E+00 (2×) and 1.00E+00
- parasite growth, replicate wells (Fig 1b) (P. falciparum Dd2-2D4; [5]): 2.00E+00 (2×) and 0.00E+00
- parasite growth, replicate wells (Fig 1b) (P. falciparum Dd2-2D4; [6]): 1.00E+00 (2×) and 0.00E+00
- parasite growth, replicate wells (Fig 1b) (P. falciparum Dd2-2D4; Log[inhibitor] (M) -8.505): 0.00E+00
- parasite growth, replicate wells (Fig 1b) (P. falciparum Dd2-2D4; Log[inhibitor] (M) -8.806, listed as Halofuginone (1)): 0.00E+00 (2×) and -1.00E+00
- parasite growth, replicate wells (Fig 1b) (P. falciparum Dd2-2D4; Log[inhibitor] (M) -9.107, listed as Halofuginone (1)): 5.00E+00 (2×) and 4.00E+00
- parasite growth, replicate wells (Fig 1b) (P. falciparum Dd2-2D4; Log[inhibitor] (M) -9.408, listed as Halofuginone (1)): 9.10E+01 and 8.70E+01 and 8.90E+01
- parasite growth, replicate wells (Fig 1b) (P. falciparum Dd2-2D4; Log[inhibitor] (M) -9.709, listed as Halofuginone (1)): 1.04E+02 and 1.07E+02 (2×)
- parasite growth, replicate wells (Fig 1b) (P. falciparum Dd2-2D4; Log[inhibitor] (M) -10.010, listed as Halofuginone (1)): 1.06E+02 and 1.04E+02 (2×)
- parasite growth, replicate wells (Fig 1b) (P. falciparum Dd2-2D4; Log[inhibitor] (M) -10.311, listed as Halofuginone (1)): 9.80E+01 and 9.90E+01 and 9.70E+01
- EC50 (P. falciparum Dd2-2D4; Plasmodium falciparum, DD2, SI Fig 16b, values on -log scale, read-out: ABS - Dd2-2D4 (converted)): 0.519 nM
- parasite growth, replicate wells (Fig 1b) ([3]; Log[inhibitor] (M) -7.000): 1.00E+00
- parasite growth, replicate wells (Fig 1b) ([3]; Log[inhibitor] (M) -7.301): 6.00E+00
- parasite growth, replicate wells (Fig 1b) [3, 4]: 2.30E+01 and 2.20E+01 (2×)
- parasite growth, replicate wells (Fig 1b) [3, 5]: 8.60E+01 (2×) and 9.10E+01
- parasite growth, replicate wells (Fig 1b) [3, 6]: 1.04E+02 and 1.02E+02 (2×)
- parasite growth, replicate wells (Fig 1b) ([3]; Log[inhibitor] (M) -8.505, listed as Halofuginone (1)): 1.05E+02 and 1.03E+02 and 9.50E+01
